Assay [1] deals with GlunN1/GluN2A glutamate receptors (Homo sapiens (Human), UniProt Q05586+Q12879). As to the kind of experiment: Whole-cell patch clamp of mammalian cells (Ionworks Barracuda), positive allosteric modulation, GluN1/GluN2A. It is filed as cell-based. The method, then:
(§1) The measurements were performed using Ion Works Barracuda platform following this procedure:
(§2) Electrophysiological Procedures:
(§3) • a) Intracellular solution (mM): 50 mM CsCl, 90 mM CsF, 2 mM MgCl2, 5 mM EGTA, 10 mM HEPES. Adjust to pH 7.2 with CsOH. • b) Extracellular solution, HB-PS (composition in mM): NaCl, 137; KCl, 1.0; CaCl2), 5; HEPES, 10; Glucose, 10; pH adjusted to 7.4 with NaOH (refrigerated until use). • c) Holding potential: −70 mV, potential during agonist/PAM application: −40 mV. Recording Procedure: • a) Extracellular buffer will be loaded into the PPC plate wells (11 μL per well). Cell suspension will be pipetted into the wells (9 μL per well) of the PPC planar electrode. • b) Whole-cell recording configuration will be established via patch perforation with membrane currents recorded by on-board patch clamp amplifiers. • c) Two recordings (scans) will be performed. First, during pre-application of test article alone (duration of pre-application—[…]) and second, during test articles and agonist (EC20 L-glutamate and 30 μM glycine) co-application to detect positive modulatory effects of the test article. […] Potentiating Effect of Positive Allosteric Modulators (PAM) on the Channel
(§4) PAM concentration-response data will be fitted to an equation of the form: % Activation=% L-glutamate EC20+{(% MAX−% L-glutamate EC20)/[1+([Test]/EC50)^N]}, where [Test] will be the concentration of PAM (test article), EC50 will be the concentration of PAM producing half-maximal activation, N will be the Hill coefficient, % L-glutamate EC20 will be the percentage of the current Elicited with L-glutamate EC20, % MAX is the percentage of the current activated with the highest dose of PAM co-admitted with L-glutamate EC20 and % Activation will be the percentage of the current elicited with L-glutamate EC10-30 at each PAM concentration. The maximal amplitude of the evoked currents are measured and defined as Peak Current Amplitude (PCA).

Assay [2] has as its target GluN2B glutamate receptors (Homo sapiens (Human), UniProt Q05586+Q13224). As to the kind of experiment: Whole-cell patch clamp of mammalian cells (Ionworks Barracuda), positive allosteric modulation, GluN2B. The following applies: for Emax: read-out: Avg Emax 2B (%). It is filed as cell-based. As for the experimental part:
as §1, §2, §3, §4

Where [3] appears, read: HEK293 cells, % potentiation of current elicited with EC20 L-glutamate and 30 μM glycine, read-out: Avg Emax 2A (%).
Where [4] appears, read: % potentiation of current elicited with EC20 L-glutamate and 30 μM glycine.
[5] abbreviates: HEK293 cells, co-application with EC20 L-glutamate and 30 μM glycine, 8-point concentration-response, read-out: Avg EC50 2A.
[6] abbreviates: co-application with EC20 L-glutamate and 30 μM glycine, 8-point concentration-response, read-out: Avg EC50 2B.
The mark [7] stands for this setting: HEK293, read-out: Avg Emax 2A (%).

These results are taken from patent US11149054B2, “Oxysterols and methods of use thereof” (Sage Therapeutics, Inc., priority 2016, dated 2021).

Like-named read-outs stand apart in the source and are kept apart here.

GlunN1/GluN2A glutamate receptors, sequence (Q12879 23-1464, other chains not shown): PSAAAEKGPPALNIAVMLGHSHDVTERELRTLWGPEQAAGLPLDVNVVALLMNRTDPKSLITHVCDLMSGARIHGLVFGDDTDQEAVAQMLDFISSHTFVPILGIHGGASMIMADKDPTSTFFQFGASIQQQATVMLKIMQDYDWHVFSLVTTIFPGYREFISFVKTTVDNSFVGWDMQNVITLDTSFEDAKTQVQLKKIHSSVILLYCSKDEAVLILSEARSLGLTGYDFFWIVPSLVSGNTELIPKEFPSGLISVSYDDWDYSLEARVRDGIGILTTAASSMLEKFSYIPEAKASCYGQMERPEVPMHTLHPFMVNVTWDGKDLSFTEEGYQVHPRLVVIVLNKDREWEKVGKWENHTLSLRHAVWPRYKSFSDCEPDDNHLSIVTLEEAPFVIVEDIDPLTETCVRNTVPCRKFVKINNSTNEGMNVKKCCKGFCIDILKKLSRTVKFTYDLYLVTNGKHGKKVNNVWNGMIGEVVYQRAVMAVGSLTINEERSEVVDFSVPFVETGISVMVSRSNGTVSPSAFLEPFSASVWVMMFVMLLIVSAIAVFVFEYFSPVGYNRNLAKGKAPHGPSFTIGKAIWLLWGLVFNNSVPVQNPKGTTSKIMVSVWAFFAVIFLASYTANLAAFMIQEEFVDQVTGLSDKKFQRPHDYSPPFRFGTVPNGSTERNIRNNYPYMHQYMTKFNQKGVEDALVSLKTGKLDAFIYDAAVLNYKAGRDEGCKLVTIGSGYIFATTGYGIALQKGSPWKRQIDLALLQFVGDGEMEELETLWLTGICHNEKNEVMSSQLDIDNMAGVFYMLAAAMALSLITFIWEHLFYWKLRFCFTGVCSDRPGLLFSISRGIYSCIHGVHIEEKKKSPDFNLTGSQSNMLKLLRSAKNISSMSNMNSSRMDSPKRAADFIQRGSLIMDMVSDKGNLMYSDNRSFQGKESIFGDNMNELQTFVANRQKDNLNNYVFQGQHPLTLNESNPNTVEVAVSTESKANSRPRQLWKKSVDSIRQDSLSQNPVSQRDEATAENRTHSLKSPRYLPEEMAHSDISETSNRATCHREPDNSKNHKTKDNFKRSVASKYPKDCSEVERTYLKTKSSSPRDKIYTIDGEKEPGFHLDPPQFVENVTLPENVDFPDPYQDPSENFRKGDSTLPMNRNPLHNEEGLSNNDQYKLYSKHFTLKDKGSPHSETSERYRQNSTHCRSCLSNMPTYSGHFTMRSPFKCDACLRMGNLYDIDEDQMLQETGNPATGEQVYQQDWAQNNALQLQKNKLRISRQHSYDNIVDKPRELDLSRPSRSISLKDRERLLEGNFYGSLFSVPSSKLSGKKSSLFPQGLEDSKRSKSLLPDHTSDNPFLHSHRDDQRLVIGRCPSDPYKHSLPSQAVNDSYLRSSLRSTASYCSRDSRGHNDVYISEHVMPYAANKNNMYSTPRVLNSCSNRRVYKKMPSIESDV
GluN2B glutamate receptors, sequence (Q13224 27-1484, other chains not shown): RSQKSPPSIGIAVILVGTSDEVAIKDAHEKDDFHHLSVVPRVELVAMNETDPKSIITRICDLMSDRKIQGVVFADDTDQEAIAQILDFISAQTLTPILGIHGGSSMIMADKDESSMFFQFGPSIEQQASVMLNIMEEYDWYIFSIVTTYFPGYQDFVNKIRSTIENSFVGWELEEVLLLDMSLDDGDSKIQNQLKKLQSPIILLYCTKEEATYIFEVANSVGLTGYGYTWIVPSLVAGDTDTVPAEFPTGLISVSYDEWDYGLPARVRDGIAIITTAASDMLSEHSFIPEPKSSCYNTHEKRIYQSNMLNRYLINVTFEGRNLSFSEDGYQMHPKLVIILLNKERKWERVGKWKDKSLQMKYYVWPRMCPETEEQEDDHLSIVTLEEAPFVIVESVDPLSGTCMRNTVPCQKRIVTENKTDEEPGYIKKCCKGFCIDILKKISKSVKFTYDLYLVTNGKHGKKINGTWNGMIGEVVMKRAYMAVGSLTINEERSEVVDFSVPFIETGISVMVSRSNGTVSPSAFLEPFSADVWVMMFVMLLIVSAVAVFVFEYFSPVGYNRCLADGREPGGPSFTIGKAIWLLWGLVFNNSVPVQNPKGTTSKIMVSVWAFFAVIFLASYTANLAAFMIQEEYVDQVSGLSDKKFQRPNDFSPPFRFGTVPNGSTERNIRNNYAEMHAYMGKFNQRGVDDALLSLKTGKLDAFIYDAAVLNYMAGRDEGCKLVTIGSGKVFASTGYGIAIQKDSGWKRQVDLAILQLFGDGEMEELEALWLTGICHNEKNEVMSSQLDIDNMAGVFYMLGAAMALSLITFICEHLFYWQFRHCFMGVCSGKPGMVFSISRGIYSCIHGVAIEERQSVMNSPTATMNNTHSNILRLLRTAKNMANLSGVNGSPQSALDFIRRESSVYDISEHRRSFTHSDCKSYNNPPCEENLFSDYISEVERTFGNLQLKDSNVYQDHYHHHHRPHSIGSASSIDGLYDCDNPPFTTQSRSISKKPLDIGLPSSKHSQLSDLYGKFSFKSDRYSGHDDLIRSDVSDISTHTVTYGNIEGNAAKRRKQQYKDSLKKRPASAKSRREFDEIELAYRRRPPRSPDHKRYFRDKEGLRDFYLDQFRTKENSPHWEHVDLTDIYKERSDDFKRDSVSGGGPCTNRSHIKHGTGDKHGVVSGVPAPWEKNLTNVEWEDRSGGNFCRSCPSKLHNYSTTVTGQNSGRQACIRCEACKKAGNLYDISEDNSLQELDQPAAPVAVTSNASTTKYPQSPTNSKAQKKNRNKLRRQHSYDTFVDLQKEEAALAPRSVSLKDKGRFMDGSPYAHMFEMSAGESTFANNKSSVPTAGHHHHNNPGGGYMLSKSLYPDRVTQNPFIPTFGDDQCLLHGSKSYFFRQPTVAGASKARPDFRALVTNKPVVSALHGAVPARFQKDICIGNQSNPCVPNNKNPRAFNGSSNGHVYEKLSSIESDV

Regarding `C[C@H](CCC(O)C(C)(C)C)[C@H]1CC[C@H]2[C@@H]3CC=C4C[C@](O)(C(F)(F)F)CC[C@]4(C)[C@H]3CC[C@]12C` (some centres unmarked) [Compound 2500], the 50% effective concentration (EC50) came to 63.3 nM in assay [1] and 91.1 nM in assay [2].

In the case of `C[C@H](O)CC[C@@H](C)[C@H]1CC[C@H]2[C@@H]3CC=C4C[C@](O)(C(F)(F)F)CC[C@]4(C)[C@H]3CC[C@]12C` [Compound 2602], the EC50 amounted to 289 nM in assay [1] and 279 nM in assay [2]. Also, the values for the Emax in assay [1] (setting [3]) and in assay [2] (setting [4]) were 163% and 367%, respectively.

Take `C[C@H](CC[C@@]1(O)CCOC1)[C@H]1CC[C@H]2[C@@H]3CC[C@H]4C[C@](O)(C(F)(F)F)CC[C@]4(C)[C@H]3CC[C@]12C` [Compound 2706]: the values for the EC50 in assay [1] and in assay [2] were above 10000 nM and 124 nM, respectively. Moreover, the Emax in assay [1] (setting [3]) was determined as 96.8%; in assay [2] (setting [4]) it was 139%.

For the molecule `C[C@H](CC[C@]1(O)CCOC1)[C@H]1CC[C@H]2[C@@H]3CC[C@H]4C[C@](O)(C(F)(F)F)CC[C@]4(C)[C@H]3CC[C@]12C` [Compound 2707], the Emax turned out to be 113% in assay [1] (setting [3]) and 259% in assay [2] (setting [4]). Further, the half-maximal effective concentration (EC50) is 119 nM in assay [1] (setting [5]) and 103 nM in assay [2] (setting [6]).

For the molecule `C[C@H](CCC(O)C(F)(F)F)[C@H]1CC[C@H]2[C@@H]3CC[C@H]4C[C@](O)(C(F)(F)F)CC[C@]4(C)[C@H]3CC[C@]12C` (some centres unmarked) [Compound 2918], the concentration giving a half-maximal response (EC50) in assay [1] was 298 nM; in assay [2] it was 339 nM. In addition, the Emax is 532% in assay [1] (setting [3]) and 506% in assay [2] (setting [4]).

In the case of `C[C@H](CC[C@](C)(O)C(F)(F)F)[C@H]1CC[C@H]2[C@@H]3CC=C4C[C@](O)(C(F)(F)F)CC[C@]4(C)[C@H]3CC[C@]12C` [Compound 3035], the EC50 in assay [1] was 61 nM; in assay [2], 75.7 nM.

Consider `C[C@H](CCC[C@@H](O)C(F)(F)F)[C@H]1CC[C@H]2[C@@H]3CC[C@H]4C[C@](O)(C(F)(F)F)CC[C@]4(C)[C@H]3CC[C@]12C` [Compound 3114], for which the Emax is 318% in assay [1] (setting [3]) and 294% in assay [2] (setting [4]). Also, the EC50 came to 382 nM in assay [1] (setting [5]) and 244 nM in assay [2] (setting [6]).

Consider `C[C@H](CC[C@@H](O)C(F)(F)F)[C@H]1CC[C@H]2[C@@H]3CC=C4C[C@](O)(C(F)(F)F)CC[C@]4(C)[C@H]3CC[C@]12C` [Compound 3149], for which the concentration giving a half-maximal response (EC50) in assay [1] was 69.7 nM; in assay [2] it was 60.7 nM.

On to `C[C@H](CC[C@@H](C)O)[C@H]1CC[C@H]2[C@@H]3CC=C4C[C@](O)(C(F)(F)F)CC[C@]4(C)[C@H]3CC[C@]12C` [Compound 3266], for which the figures for the Emax in assay [1] (setting [3]) and in assay [2] (setting [4]) were 82.6% and 135%, respectively. The EC50 in assay [1] (setting [5]) was determined as 147 nM; in assay [2] (setting [6]), 377 nM.

Turning to `C[C@H](CC[C@@H](O)C(C)(C)C)[C@H]1CC[C@H]2[C@@H]3CC=C4C[C@](O)(C(F)(F)F)CC[C@]4(C)[C@H]3CC[C@]12C` [Compound 3382], the results for the concentration giving a half-maximal response (EC50) in assay [1] and in assay [2] were 67.6 nM and 126 nM, respectively.

On to `C[C@H](CC[C@@]1(O)CCOC1)[C@H]1CC[C@H]2[C@@H]3CC=C4C[C@](O)(C(F)(F)F)CC[C@]4(C)[C@H]3CC[C@]12C` [Compound 3495], for which the values for the Emax in assay [1] (setting [7]) and in assay [2] were 107% and 146%, respectively.

As for `C[C@H](CC[C@H](O)C(C)(C)C)[C@H]1CC[C@H]2[C@@H]3CC=C4C[C@](O)(C(F)(F)F)CC[C@]4(C)[C@H]3CC[C@]12C` [Compound 3507], the EC50 stood at 165 nM in assay [1] and 191 nM in assay [2].

As to `C[C@H](CC[C@H](O)C(C)(C)C)[C@H]1CC[C@H]2[C@@H]3CC[C@@H]4C[C@](O)(C(F)(F)F)CC[C@]4(C)[C@H]3CC[C@]12C` [Compound 3634], the EC50 in assay [1] is 423 nM; in assay [2], 404 nM.

Turning to `C[C@H](CC[C@@H](O)C(C)(C)C)[C@H]1CC[C@H]2[C@@H]3CC[C@@H]4C[C@](O)(C(F)(F)F)CC[C@]4(C)[C@H]3CC[C@]12C` [Compound 3788], the EC50 turned out to be 1320 nM in assay [1] and 1120 nM in assay [2].

Take `C[C@H](CC[C@]1(O)CC[C@@H](C)CC1)[C@H]1CC[C@H]2[C@@H]3CC[C@H]4C[C@](O)(C(F)(F)F)CC[C@]4(C)[C@H]3CC[C@]12C` [Compound 3886]: the Emax was found to be 106% in assay [1] (setting [7]) and 164% in assay [2].

As to `C[C@H](CCC1(O)CCCCCC1)[C@H]1CC[C@H]2[C@@H]3CC[C@H]4C[C@](O)(C(F)(F)F)CC[C@]4(C)[C@H]3CC[C@]12C` [Compound 3983], the concentration for a half-maximal effect (EC50) in assay [1] turned out to be 88.1 nM; in assay [2], 248 nM.

For `C[C@H](CCC1(O)CCCCC1)[C@H]1CC[C@H]2[C@@H]3CC[C@H]4C[C@](O)(C(F)(F)F)CC[C@]4(C)[C@H]3CC[C@]12C` [Compound 4023], the EC50 in assay [1] worked out at 516 nM; in assay [2] it was 406 nM. Further, the Emax in assay [1] (setting [3]) worked out at 322%; in assay [2] (setting [4]), 418%.

For `C[C@H](CCCC1(O)CC1)[C@H]1CC[C@H]2[C@@H]3CC[C@H]4C[C@](O)(C(F)(F)F)CC[C@]4(C)[C@H]3CC[C@]12C` [Compound 4115], the 50% effective concentration (EC50) in assay [1] was 91.9 nM; in assay [2], 114 nM.

For `C[C@H](CC[C@H](O)C1CCCCC1)[C@H]1CC[C@H]2[C@@H]3CC[C@H]4C[C@](O)(C(F)(F)F)CC[C@]4(C)[C@H]3CC[C@]12C` [Compound 4155], the EC50 came out at 442 nM in assay [1] and 612 nM in assay [2]. In addition, the Emax is 164% in assay [1] (setting [3]) and 198% in assay [2] (setting [4]).

Regarding `C[C@H](CC[C@@H](O)C1CCCCC1)[C@H]1CC[C@H]2[C@@H]3CC[C@H]4C[C@](O)(C(F)(F)F)CC[C@]4(C)[C@H]3CC[C@]12C` [Compound 4156], the EC50 in assay [1] and in assay [2] was above 10000 nM throughout. Also, the results for the Emax in assay [1] (setting [3]) and in assay [2] (setting [4]) were 10.6% and 20.1%, respectively.

As for `CC(C)[C@H]1CC[C@@](O)(CC[C@@H](C)[C@H]2CC[C@H]3[C@@H]4CC[C@H]5C[C@](O)(C(F)(F)F)CC[C@]5(C)[C@H]4CC[C@]23C)CC1` [Compound 4258], the EC50 worked out at 1030 nM in assay [1] and 640 nM in assay [2]. Besides, the Emax in assay [1] (setting [3]) is 184%; in assay [2] (setting [4]) it was 242%.

Turning to `CC(C)[C@H]1CC[C@](O)(CC[C@@H](C)[C@H]2CC[C@H]3[C@@H]4CC[C@H]5C[C@](O)(C(F)(F)F)CC[C@]5(C)[C@H]4CC[C@]23C)CC1` [Compound 4259], the concentration giving a half-maximal response (EC50) in assay [1] and in assay [2] was above 10000 nM each time. The values for the Emax in assay [1] (setting [3]) and in assay [2] (setting [4]) were -13.3% and 24.3%, respectively.

On to `C[C@H](CCC1(O)CCC(C(C)(C)C)CC1)[C@H]1CC[C@H]2[C@@H]3CC[C@H]4C[C@](O)(C(F)(F)F)CC[C@]4(C)[C@H]3CC[C@]12C` (some centres unmarked) [Compound 4360], for which the Emax was 38.1% in assay [1] (setting [3]) and 14.6% in assay [2] (setting [4]).

Turning to `CC[C@H]1CC[C@@](O)(CC[C@@H](C)[C@H]2CC[C@H]3[C@@H]4CC[C@H]5C[C@](O)(C(F)(F)F)CC[C@]5(C)[C@H]4CC[C@]23C)CC1` [Compound 4475], the figures for the EC50 in assay [1] and in assay [2] were 461 nM and 266 nM, respectively. Besides, the Emax in assay [1] (setting [3]) was found to be 364%; in assay [2] (setting [4]), 355%.

In the case of `CC[C@H]1CC[C@](O)(CC[C@@H](C)[C@H]2CC[C@H]3[C@@H]4CC[C@H]5C[C@](O)(C(F)(F)F)CC[C@]5(C)[C@H]4CC[C@]23C)CC1` [Compound 4476], the EC50 in assay [1] and in assay [2] was above 10000 nM each time. Further, the results for the Emax in assay [1] (setting [3]) and in assay [2] (setting [4]) were -3.3% and 10.4%, respectively.

As for `CO[C@H]1CC[C@@](O)(CC[C@@H](C)[C@H]2CC[C@H]3[C@@H]4CC[C@H]5C[C@](O)(C(F)(F)F)CC[C@]5(C)[C@H]4CC[C@]23C)CC1` [Compound 4555], the EC50 in assay [1] and in assay [2] was above 10000 nM each time. In addition, the Emax in assay [1] (setting [3]) amounted to 22.8%; in assay [2] (setting [4]), 31.9%.
